Among the data in PMC12344693, “Human Milk Oligosaccharides Multivalently Presented on Defined Synthetic Neo-Glycoproteins Are Nanomolar Ligands of Tandem-Repeat Galectins” (Biomacromolecules, 2025) are IC50 values, retold here.

Several values for one entry are separate records, joined by “and”; a condition that tells them apart may be missing. Equal entries are not always repeated. Where two headings read alike, the source gives them in different places. A value given as a limit tells only on which side of the number the result lay.

For assay [1], the target named is T1, Gal-4 (Homo sapiens, UniProt P56470).
T1 construct: Full-length recombinant human galectins (Gal-1, Gal-3, Gal-4, Gal-8, and Gal-9) for ELISA assays; made in house; host or cells: E. coli Rosetta 2(DE3)pLysS
T1 sequence (P56470 1-323): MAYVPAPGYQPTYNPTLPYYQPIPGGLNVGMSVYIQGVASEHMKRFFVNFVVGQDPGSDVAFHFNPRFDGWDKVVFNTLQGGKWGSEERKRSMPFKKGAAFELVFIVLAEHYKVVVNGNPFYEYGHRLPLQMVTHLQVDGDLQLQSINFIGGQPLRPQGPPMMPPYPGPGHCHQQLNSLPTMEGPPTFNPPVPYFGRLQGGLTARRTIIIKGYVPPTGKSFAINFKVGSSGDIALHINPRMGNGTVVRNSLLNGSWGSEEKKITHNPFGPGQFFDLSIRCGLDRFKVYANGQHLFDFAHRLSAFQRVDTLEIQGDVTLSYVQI
In words: competitive ELISA, inhibition of galectin binding to immobilized asialofetuin. Conditions: competitive ELISA vs immobilized ASF; 2.5 μM Gal-4; at least quadruplicate. In general terms: ELISA stands for enzyme-linked immunosorbent assay.
Description: (§1) The inhibitory potential of the prepared glycan library and the respective multivalent neo-glycoproteins with Gal-1, -3, -4, -8, and -9 was evaluated using a competitive ELISA assay as described by Vašíček et al. Asialofetuin (ASF; 0.1 μM in PBS, 50 μL/well) was immobilized onto microtiter plates (Nunc Immuno Sorb, ThermoFisher Scientific, USA) overnight at 4 °C. Wells were subsequently washed three times with PBS containing 0.05%, v/v, Tween-20 (250 μL/wash). Each assay step was followed by a washing step to ensure the thorough removal of unbound reagents. Blocking was performed using 2%, w/v, BSA in PBS (250 μL/well) for 1 h at room temperature. Serial dilutions of the inhibitors prepared in EPBS buffer (PBS containing 2 mM EDTA) were incubated with a constant concentration of galectin (2.5 μM Gal-1, Gal-3, and Gal-4; 0.5 μM Gal-8 and Gal-9) for 2 h. […] Residual galectin bound to ASF was detected using the anti-His-tag antibody conjugated to horseradish peroxidase (Santa Cruz Biotechnology, 1:999 dilution in PBS). Detection was achieved by adding 50 μL of TMB One substrate solution (Kem-En-Tech, Denmark), which developed a blue color that turned yellow upon the addition of 50 μL of 3 M HCl. Absorbance at 450 nm was measured using a microplate reader (Sunrise, Tecan Group Ltd., Switzerland) reflecting the amount of galectin bound to the wells. Half-maximal inhibitory concentration (IC50) values were calculated by nonlinear regression (dose–response inhibition with variable slope) of sigmoidal curves using GraphPad Prism version 8.4.3 (GraphPad Software, USA).
(§2) Serially diluted ligands and NGPs were incubated with individual galectin species in the wells coated with asialofetuin (ASF). The remaining galectin bound to the immobilized ASF was detected using an anti-His6 antibody.

The target of the next assay is T2, Gal-8 (Homo sapiens, UniProt O00214).
T2 construct: Full-length recombinant human galectins (Gal-1, Gal-3, Gal-4, Gal-8, and Gal-9) for ELISA assays; made in house; host or cells: E. coli Rosetta 2(DE3)pLysS
T2 sequence (O00214 1-317): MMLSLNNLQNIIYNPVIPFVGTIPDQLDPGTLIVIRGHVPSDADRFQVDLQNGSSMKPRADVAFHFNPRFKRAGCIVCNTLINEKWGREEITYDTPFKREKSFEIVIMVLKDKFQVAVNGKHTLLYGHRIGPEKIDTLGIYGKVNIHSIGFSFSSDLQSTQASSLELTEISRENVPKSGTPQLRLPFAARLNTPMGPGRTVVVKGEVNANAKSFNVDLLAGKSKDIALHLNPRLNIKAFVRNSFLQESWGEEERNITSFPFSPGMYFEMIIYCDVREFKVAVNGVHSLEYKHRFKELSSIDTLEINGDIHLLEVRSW
The assay is described as above. The settings on record: competitive ELISA vs immobilized ASF; 0.5 μM Gal-8; at least quadruplicate.

A further assay concerns the target Gal-3 (Homo sapiens, UniProt P17931). The description is as above.
The target in the next assay is Gal-1 (Homo sapiens, UniProt P09382, C3S). The assay is described as above.
A further assay has as its target T3, Gal-9 (Homo sapiens, UniProt O00182, A222P/DEL149-219).
T3 construct: Full-length recombinant human galectins (Gal-1, Gal-3, Gal-4, Gal-8, and Gal-9) for ELISA assays; made in house; host or cells: E. coli Rosetta 2(DE3)pLysS
Described as above. Conditions: competitive ELISA vs immobilized ASF; 0.5 μM Gal-9; at least quadruplicate.

The target in assay [2] is T1, Gal-4. More on the design: method as in previously published by us. The settings on record: competitive ELISA vs immobilized ASF; footnote b; ref previously published by us; cited from earlier work.

Sequence of Gal-1 (P09382 whole entry C3S): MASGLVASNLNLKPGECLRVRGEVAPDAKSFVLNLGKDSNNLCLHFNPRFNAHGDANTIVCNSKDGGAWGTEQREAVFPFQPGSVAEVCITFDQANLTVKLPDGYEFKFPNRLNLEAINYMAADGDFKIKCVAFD
Sequence of Gal-3 (P17931 whole entry): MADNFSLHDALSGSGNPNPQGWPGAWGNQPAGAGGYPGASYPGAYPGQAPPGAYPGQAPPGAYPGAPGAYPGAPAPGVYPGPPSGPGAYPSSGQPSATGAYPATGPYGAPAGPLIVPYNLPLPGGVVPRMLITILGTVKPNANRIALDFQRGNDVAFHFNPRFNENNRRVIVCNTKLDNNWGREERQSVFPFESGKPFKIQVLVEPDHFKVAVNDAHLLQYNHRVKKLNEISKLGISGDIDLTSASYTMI
T3 sequence (O00182 with tags, fused parts or gaps DEL149-219/A222P): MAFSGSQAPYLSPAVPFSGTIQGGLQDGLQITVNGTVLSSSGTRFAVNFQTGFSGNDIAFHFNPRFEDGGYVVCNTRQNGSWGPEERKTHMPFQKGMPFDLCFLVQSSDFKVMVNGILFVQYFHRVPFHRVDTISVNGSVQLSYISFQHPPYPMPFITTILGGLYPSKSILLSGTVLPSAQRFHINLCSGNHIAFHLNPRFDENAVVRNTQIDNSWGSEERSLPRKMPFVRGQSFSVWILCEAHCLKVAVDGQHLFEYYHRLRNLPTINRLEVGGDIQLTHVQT
Description for Gal-1: as §1, §2
Description for Gal-3: as §1, §2
Description for Gal-8: as §1, §2
Description for Gal-9: as §1, §2

In the case of `CC(=O)N[C@H]1[C@H](O[C@H]2[C@@H](O)[C@@H](CO)O[C@@H](O[C@H]3[C@H](O)[C@@H](O)[C@H](NC(=S)NCCNC(=O)OC(C)(C)C)O[C@@H]3CO)[C@@H]2O)O[C@H](CO)[C@@H](O)[C@@H]1O[C@@H]1O[C@H](CO)[C@H](O)[C@H](O)[C@H]1O` [Compound 3, (tert-Butoxycarbonylamino)ethylthioureidyl β-D-galactopyranosyl-(1→3)-2-acetamido-2-deoxy-β-D-glucopyranosyl-(1→3)-β-D-galactopyranosyl-(1→4)-β-D-glucopyranoside], the IC50 is 108 ± 16 µM at Gal-4 [1]; 820 ± 140 µM at Gal-8; 15.2 ± 1 µM at Gal-3; over 500 µM at Gal-1; 230 ± 43 µM on Gal-9.
Turning to `CC(=O)N[C@@H]1[C@@H](O)[C@H](O[C@@H]2O[C@H](CO)[C@H](O)[C@H](O[C@@H]3O[C@H](CO)[C@@H](O)[C@H](O[C@@H]4O[C@H](CO)[C@H](O)[C@H](O)[C@H]4O)[C@H]3NC(C)=O)[C@H]2O)[C@@H](CO)O[C@H]1NC(=S)NCCNC(=O)OC(C)(C)C` [Compound 9, (tert-Butoxycarbonylamino)ethylthioureidyl β-D-galactopyranosyl-(1→3)-2-acetamido-2-deoxy-β-D-glucopyranosyl-(1→3)-β-D-galactopyranosyl-(1→4)-2-acetamido-2-deoxy-β-D-glucopyranoside], the IC50 was 2380 ± 670 µM on Gal-4 [1]; over 5000 µM at Gal-8; 27 ± 4 µM on Gal-3 (read-out: IC50 Gal-3, Table S9, competitive ELISA vs immobilized ASF, […] Gal-3, unit inferred); over 500 µM on Gal-1; over 5000 µM on Gal-9.
For `CC(C)(C)OC(=O)NCCNC(=S)N[C@@H]1O[C@H](CO)[C@@H](O[C@@H]2O[C@H](CO)[C@H](O)[C@H](O)[C@H]2O)[C@H](O)[C@H]1O` [Compound 1, (tert-butoxycarbonylamino)ethylthioureidyl β-D-galactopyranosyl-(1→4)-β-D-glucopyranoside], the IC50 is 2870 ± 470 µM at Gal-8; 136 ± 18 µM on Gal-3; 286 ± 23 µM on Gal-1; 2520 ± 180 µM at Gal-4 [2]; 2180 ± 670 µM at Gal-9.
With `CC(=O)N[C@H]1[C@H](O[C@H]2[C@@H](O)[C@@H](CO)O[C@@H](O[C@H]3[C@H](O)[C@@H](O)[C@H](NC(=S)NCCNC(=O)OC(C)(C)C)O[C@@H]3CO)[C@@H]2O)O[C@H](CO)[C@@H](O[C@@H]2O[C@H](CO)[C@H](O)[C@H](O)[C@H]2O)[C@@H]1O` [Compound 4, (tert-Butoxycarbonylamino)ethylthioureidyl β-D-galactopyranosyl-(1→4)-2-acetamido-2-deoxy-β-D-glucopyranosyl-(1→3)-β-D-galactopyranosyl-(1→4)-β-D-glucopyranoside], the IC50 is 130 ± 30 µM on Gal-8; 7.3 ± 1.6 µM at Gal-3; 436 ± 41 µM at Gal-1; 620 ± 100 µM at Gal-4 [2]; 170 µM and 168 µM at Gal-9.
For `CC(=O)N[C@@H]1[C@@H](O)[C@H](O[C@@H]2O[C@H](CO)[C@H](O)[C@H](O[C@@H]3O[C@H](CO)[C@@H](O[C@@H]4O[C@H](CO)[C@H](O)[C@H](O)[C@H]4O)[C@H](O)[C@H]3NC(C)=O)[C@H]2O)[C@@H](CO)O[C@H]1NC(=S)NCCNC(=O)OC(C)(C)C` [Compound 10, (tert-Butoxycarbonylamino)ethylthioureidyl β-D-galactopyranosyl-(1→4)-2-acetamido-2-deoxy-β-D-glucopyranosyl-(1→3)-β-D-galactopyranosyl-(1→4)-2-acetamido-2-deoxy-β-D-glucopyranoside], the IC50 at Gal-4 [1] is 2390 ± 490 µM; on Gal-8 it was 406 ± 46 µM; at Gal-3, 12 ± 1 µM; on Gal-1, 106 ± 7 µM; on Gal-9 it was 52 ± 23 µM.
On to `CC(=O)N[C@@H]1[C@@H](O)[C@H](O[C@@H]2O[C@H](CO)[C@H](O)[C@H](O)[C@H]2O)[C@@H](CO)O[C@H]1NC(=S)NCCNC(=O)OC(C)(C)C` [Compound 7, Galβ4GlcNAc-tBoc], for which the IC50 on Gal-4 [1] is 8630 ± 530 µM; on Gal-8, 18700 µM; at Gal-3 it was 47 ± 6 µM; on Gal-1 it was 79 ± 9 µM; on Gal-9, 2840 ± 650 µM.
The matching figures for `CC(=O)N[C@@H]1[C@@H](O)[C@H](O[C@@H]2O[C@H](CO)[C@H](O)[C@H](O[C@@H]3O[C@H](CO)[C@@H](O[C@@H]4O[C@H](CO)[C@H](O)[C@H](O)[C@H]4NC(C)=O)[C@H](O)[C@H]3NC(C)=O)[C@H]2O)[C@@H](CO)O[C@H]1NC(=S)NCCNC(=O)OC(C)(C)C` [Compound 11, (tert-Butoxycarbonylamino)ethylthioureidyl 2-acetamido-2-deoxy-β-D-galactopyranosyl-(1→4)-2-acetamido-2-deoxy-β-D-glucopyranosyl-(1→3)-β-D-galactopyranosyl-(1→4)-2-acetamido-2-deoxy-β-D-glucopyranoside]: 2010 ± 1000 µM, 270 ± 85 µM, 2.7 ± 2.4 µM, 98 ± 22 µM and 260 ± 75 µM.
As for `CC(=O)N[C@H]1[C@H](O[C@H]2[C@@H](O)[C@@H](CO)O[C@@H](O[C@H]3[C@H](O)[C@@H](O)[C@H](NC(=S)NCCNC(=O)OC(C)(C)C)O[C@@H]3CO)[C@@H]2O)O[C@H](CO)[C@@H](O[C@@H]2O[C@H](CO)[C@H](O)[C@H](O)[C@H]2NC(C)=O)[C@@H]1O` [Compound 5, (tert-Butoxycarbonylamino)ethylthioureidyl 2-acetamido-2-deoxy-β-D-galactopyranosyl-(1→4)-2-acetamido-2-deoxy-β-D-glucopyranosyl-(1→3)-β-D-galactopyranosyl-(1→4)-2-β-D-glucopyranoside], the IC50 at Gal-4 [1] came out at 1620 ± 260 µM; on Gal-8, 75 ± 9 µM; at Gal-3 it was 2.2 ± 1.3 µM; on Gal-1 it was 435 ± 102 µM; on Gal-9, 326 ± 26 µM.

By IC50 is commonly meant the midpoint of a concentration-inhibition curve.
